Reference: patent publication US20260256871A1, “COMPOSITIONS AND METHODS FOR TREATMENT OF SUBJECTS SUFFERING FROM A SARS-COV-2 INFECTION” (priority 2022, published 2026)
Entries after “also recorded” stand apart in the source; their conditions may differ. Counter-ions that a name gives are not always drawn. Like-named read-outs stand apart in the source and are kept apart here.

How the values were obtained:
cells = settings: due to the very low pH; cited from earlier work
SARS-CoV2 [1] = format: cell-based; settings: for inhibition of SARS-CoV2 replication in HBECs (viral copy number): camostat basolateral; for viral load: antioxidants NAC and SFN
16HBE cells = assay: Cytotoxicity, CytoTox 96 LDH release assay; settings: for cytotoxicity (LDH release) at maximum concentration used in antiviral assays: 72 h, camostat 125 μM, HA 0.7%, BAPTA-AM 10 uM, allopurinol 400 μM, NAC 100 mM, SFN 10 μM, ivacaftor, PAAG at maximum; for toxicity values (percent of maximum toxicity): Allopurinol 400 uM, NAC 50 mM, SFN 5 uM, 72 hours
SARS-CoV2 [2] = assay: Protection against SARS-CoV2 in Vero cells; format: cell-based

SMILES: O=C1O[C@H]([C@@H](O)CO)C(O)=C1O [ascorbic acid]
- cytotoxicity of component alone (without bicarbonate buffer) (cells): cytotoxic

SMILES: Oc1ncnc2[nH]ncc12 [allopurinol]
- protection of HBECs from SARS-CoV2 infection (replication) (SARS-CoV2 [1]; allopurinol 400 uM, xanthine oxidase inhibition): significantly protected; also recorded: significantly blocks SARS-CoV2 replication
- cytotoxicity (LDH release) at maximum concentration used in antiviral assays (16HBE cells): neither allopurinol, NAC nor SFN showed cytotoxicity
- toxicity values (percent of maximum toxicity) (16HBE cells): negative values of toxicity

SMILES: CN(C)C(=O)COC(=O)Cc1ccc(OC(=O)c2ccc(NC(=N)N)cc2)cc1 [camostat mesylate]
- inhibition of SARS-CoV2 replication in HBECs (viral copy number) (SARS-CoV2 [1]; vs DMSO vehicle, 72 h): dose-dependent manner
- inhibition of SARS-CoV2 replication in HBECs (viral copy number) (SARS-CoV2 [1]; vs DMSO vehicle, 72 h, listed as Camostat): significantly inhibited
- inhibition of SARS-CoV2 infection (SARS-CoV2 [1]; camostat mesylate basolateral, concentrations higher than 16.62 μM, vs DMSO vehicle, 72 h): ~100%
- protection against SARS-CoV2 (SARS-CoV2 [2]): partially protective
- cytotoxicity (LDH release) at maximum concentration used in antiviral assays (16HBE cells): not toxic

SMILES: O=C([O-])O.[Na+] [bicarbonate alone, sodium bicarbonate]
- antiviral activity of ARINA-1 components (SARS-CoV2 [1]): did not show significant activity

SMILES: N[C@@H](CCC(=O)N[C@@H](CS)C(=O)NCC(=O)O)C(=O)O [glutathione]
- cytotoxicity of component alone (without bicarbonate buffer) (cells): cytotoxic

SMILES: CC(=O)N[C@@H](CS)C(=O)O [NAC, N-Acetyl-L-cysteine]
- viral load (SARS-CoV2 [1]): reduction in the viral load
- cytotoxicity (LDH release) at maximum concentration used in antiviral assays (16HBE cells): neither allopurinol, NAC nor SFN showed cytotoxicity
- toxicity values (percent of maximum toxicity) (16HBE cells): negative values of toxicity

SMILES: C[S+]([O-])CCCCN=C=S (stereo not shown) [SFN, sulforaphane]
- viral load (SARS-CoV2 [1]): reduction in the viral load
- cytotoxicity (LDH release) at maximum concentration used in antiviral assays (16HBE cells): neither allopurinol, NAC nor SFN showed cytotoxicity
- toxicity values (percent of maximum toxicity) (16HBE cells): negative values of toxicity

SMILES: CC(C)(C)c1cc(C(C)(C)C)c(NC(=O)c2c[nH]c3ccccc3c2=O)cc1O [Ivacaftor, ivacaftor]
- effect on SARS-CoV-2 replication (SARS-CoV2 [1]; ivacaftor basolateral, ≥10 μM, close to its maximum solubility): moderate effect
- cytotoxicity (LDH release) at maximum concentration used in antiviral assays (16HBE cells): showed cytotoxicity
